Patent US7547690B2, “Compounds for the treatment of Hepatitis C” (Bristol-Myers Squibb Company, priority 2007, dated 2009)

Key:
HCV replicon cells = assay: HCV replicon FRET / luciferase assay; format: cell-based; conditions: Hepatitis C virus, 50% reduction in FRET or luciferase activity in HCV replicon cells; read-out: EC50
Outline: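 HCV replicon cells (with or without Renilla luciferase reporter) incubated with titrated compounds at 37° C; cytotoxicity read by Alamar blue. Replicon activity then read by NS3 cleavage of EDANS/DABCYL FRET peptide (20 μM final, 340/490 nm kinetic) or by luciferase; background from highest control-inhibitor wells subtracted; EC50 = concentration giving 50% signal reduction.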

HCV NS5B = target: T1, HCV NS5B (Hepatitis C virus genotype 1b, UniProt Q9WMX2); assay: HCV NS5B RdRp enzyme assay (standard / modified); format: biochemical; conditions: HCV RdRp genotype 1b; standard or modified assay not specified; read-out: IC50
T1 construct: The protein was expressed with an 18 amino acid C-terminal truncation to enhance the solubility; made in house; host or cells: E. coli BL21(DE3)
Outline: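 Genotype 1b NS5B, 18-aa C-terminal truncation, E. coli-expressed; polyA template with biotin-oligo-dT12 primer, 3H-UTP (0.29 μM UTP), pH 7.5 Hepes, 2% DMSO, 30 °C, SPA read. Standard: 28 nM enzyme, 6 nM template, 180 nM primer, 60 min. Modified: 1.75 nM enzyme, 0.36 nM template, 20 nM bead-precaptured primer, 4 h; IC50 from seven concentrations, four-parameter fit.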

T1 sequence (Q9WMX2 2420-2992): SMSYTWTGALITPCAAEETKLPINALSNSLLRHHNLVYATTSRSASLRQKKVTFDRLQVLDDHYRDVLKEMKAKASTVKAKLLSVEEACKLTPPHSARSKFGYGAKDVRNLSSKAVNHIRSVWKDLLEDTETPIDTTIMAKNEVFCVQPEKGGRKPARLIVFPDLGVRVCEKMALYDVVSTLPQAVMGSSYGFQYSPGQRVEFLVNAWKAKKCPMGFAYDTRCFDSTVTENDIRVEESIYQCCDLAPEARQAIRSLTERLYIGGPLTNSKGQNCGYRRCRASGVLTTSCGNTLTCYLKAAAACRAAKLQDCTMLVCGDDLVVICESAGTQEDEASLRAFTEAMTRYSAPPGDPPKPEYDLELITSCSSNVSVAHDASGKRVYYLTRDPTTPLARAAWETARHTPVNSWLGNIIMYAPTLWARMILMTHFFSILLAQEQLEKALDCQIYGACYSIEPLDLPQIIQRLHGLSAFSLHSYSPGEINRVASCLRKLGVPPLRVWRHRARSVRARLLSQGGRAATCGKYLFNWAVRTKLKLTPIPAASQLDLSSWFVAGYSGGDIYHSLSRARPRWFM

SMILES	EC50 (HCV replicon cells) [nM]	IC50 (HCV NS5B) [nM]
COc1ccc2c(c1)C1CC1(C(=O)N1CC3CCC1CN3)Cn1c-2c(C2CCCCC2)c2ccc(C(=O)NS(=O)(=O)C3CCCC3)cc21 (stereo not drawn)	> 1000	2.4 to 500
COc1ccc2c(c1)C1CC1(C(=O)N1CC3CCC1CN3)Cn1c-2c(C2CCCCC2)c2ccc(C(=O)NS(=O)(=O)CC(F)(F)F)cc21 (stereo not drawn)	> 1000	2.4 to 500
CCN1C[C@H]2C[C@@H]1CN2C(=O)C12CC1c1cc(OC)ccc1-c1c(C3CCCCC3)c3ccc(C(=O)NS(N)(=O)=O)cc3n1C2 (stereo partly drawn)	2.4 to 500	2.4 to 500
COc1ccc2c(c1)C1CC1(C(=O)N1C3CC1CN(C)C3)Cn1c-2c(C2CCCCC2)c2ccc(C(=O)NS(=O)(=O)N3CCN(C)CC3)cc21 (stereo not drawn)	2.4 to 500	2.4 to 500
COc1ccc2c(c1)C1CC1(C(=O)N1CC3COCC(C1)N3C)Cn1c-2c(C2CCCCC2)c2ccc(C(=O)NS(=O)(=O)N(C)C)cc21 (stereo not drawn)	2.4 to 500	2.4 to 500
CCN1C[C@H]2C[C@@H]1CN2C(=O)C12CC1c1cc(OC)ccc1-c1c(C3CCCCC3)c3ccc(C(=O)NS(=O)(=O)N(C)C)cc3n1C2 (stereo partly drawn)	2.4 to 500	2.4 to 500
COc1ccc2c(c1)[C@@H]1C[C@]1(C(=O)N1C3CCC1CN(C)CC3)Cn1c-2c(C2CCCCC2)c2ccc(C(=O)NS(=O)(=O)C(C)C)cc21 (stereo partly drawn)	2.4 to 500	2.4 to 500
CCS(=O)(=O)NC(=O)c1ccc2c(C3CCCCC3)c3n(c2c1)CC1(C(=O)N2C4CCCC2CN(C)C4)CC1c1cc(OC)ccc1-3 (stereo not drawn)	2.4 to 500	2.4 to 500
CCC(C)S(=O)(=O)NC(=O)c1ccc2c(C3CCCCC3)c3n(c2c1)CC1(C(=O)N2CC4CCC2CN4)CC1c1cc(OC)ccc1-3 (stereo not drawn)	500 to 5000	2.4 to 500
CCN(CC)S(=O)(=O)NC(=O)c1ccc2c(C3CCCCC3)c3n(c2c1)CC1(C(=O)N2C4CC2CN(C)C4)CC1c1cc(OC)ccc1-3 (stereo not drawn)	2.4 to 500	2.4 to 500
COc1ccc2c(c1)C1CC1(C(=O)N1C3CN(C)CC1CN(C(C)C)C3)Cn1c-2c(C2CCCCC2)c2ccc(C(=O)NS(=O)(=O)N(C)C)cc21 (stereo not drawn)	2.4 to 500	2.4 to 500
COc1ccc2c(c1)C1CC1(C(=O)N1C3CN(C)CC1CN(C(C)=O)C3)Cn1c-2c(C2CCCCC2)c2ccc(C(=O)NS(=O)(=O)N(C)C)cc21 (stereo not drawn)	2.4 to 500	2.4 to 500
COc1ccc2c(c1)[C@@H]1C[C@]1(C(=O)N1[C@@H]3C[C@H]1CN(Cc1ccccc1)C3)Cn1c-2c(C2CCCCC2)c2ccc(C(=O)NS(=O)(=O)N(C)C)cc21	2.4 to 500	2.4 to 500
COc1ccc2c(c1)C1CC1(C(=O)N1C[C@H]3C[C@@H]1CN3CC(C)C)Cn1c-2c(C2CCCCC2)c2ccc(C(=O)NS(=O)(=O)N3CCC3)cc21 (stereo partly drawn)	2.4 to 500	2.4 to 500
COc1ccc2c(c1)C1CC1(C(=O)N1C[C@H]3C[C@@H]1CN3C)Cn1c-2c(C2CCCCC2)c2ccc(C(=O)NS(N)(=O)=O)cc21 (stereo partly drawn)	2.4 to 500	2.4 to 500
COc1ccc2c(c1)C1CC1(C(=O)N1C3CC1CN(Cc1ccccc1)C3)Cn1c-2c(C2CCCCC2)c2ccc(C(=O)NS(=O)(=O)C3CC3)cc21 (stereo not drawn)	2.4 to 500	2.4 to 500
COc1ccc2c(c1)C1CC1(C(=O)N1C3COC[C@@H]1CN(C)C3)Cn1c-2c(C2CCCCC2)c2ccc(C(=O)NS(=O)(=O)CC(F)(F)F)cc21 (stereo partly drawn)	2.4 to 500	2.4 to 500
COc1ccc2c(c1)[C@@H]1C[C@]1(C(=O)N1C3CCCC1CN(C)C3)Cn1c-2c(C2CCCCC2)c2ccc(C(=O)NS(=O)(=O)N(C)C)cc21	2.4 to 500	2.4 to 500
COc1ccc2c(c1)C=C(C(=O)N1C3CCCC1CN(C)C3)Cn1c-2c(C2CCCCC2)c2ccc(C(=O)NS(=O)(=O)N(C)C)cc21	2.4 to 500	2.4 to 500
COc1ccc2c(c1)C1CC1(C(=O)N1C3CC1CN(Cc1ccccc1)C3)Cn1c-2c(C2CCCCC2)c2ccc(C(=O)NS(=O)(=O)CCC(F)(F)F)cc21 (stereo not drawn)	500 to 5000	2.4 to 500
COc1ccc2c(c1)C1CC1(C(=O)N1C[C@@H]3C[C@H]1CN3C)Cn1c-2c(C2CCCCC2)c2ccc(C(=O)NS(=O)(=O)N3CCC3)cc21 (stereo partly drawn)	2.4 to 500	2.4 to 500
COc1ccc2c(c1)C1CC1(C(=O)N1C3COC[C@@H]1CN(C)C3)Cn1c-2c(C2CCCCC2)c2ccc(C(=O)NS(=O)(=O)C(C)C)cc21 (stereo partly drawn)	2.4 to 500	2.4 to 500
COc1ccc2c(c1)C1CC1(C(=O)N1CC3CCC1CN3)Cn1c-2c(C2CCCCC2)c2ccc(C(=O)NS(=O)(=O)CCC(F)(F)F)cc21 (stereo not drawn)	> 1000	2.4 to 500
COc1ccc2c(c1)C1CC1(C(=O)N1[C@@H]3C[C@H]1CN(C(C)=O)C3)Cn1c-2c(C2CCCCC2)c2ccc(C(=O)NS(=O)(=O)N(C)C)cc21 (stereo partly drawn)	2.4 to 500	2.4 to 500
